From patent US8389679B2, “Targeted antimicrobial moieties” (priority 2009, dated 2013)
“Also recorded” adds a separate entry of the source.

Test system: target microorganisms
Experiment: Screen of synthesized peptides for binding to target microorganisms (targeting peptides, Tables 2 and 3)
Conditions: microorganism(s) the targeting peptide was identified as binding to (Table 3)
Method: Once noted, these peptides were batch synthesized on a multiplex peptide synthesizer, yielding 5-10 mg of each peptide that could readily be screened for biological activity (e.g., binding activity and/or antimicrobial activity.
Other suitable targeting peptides include the peptides that have been identified as binding to particular target organisms as shown in Table 3 and/or Table 4.

Row | Substance | Target(s)
1 | 1T-94 (DQVAHSGDMLVQARRRDS; synthetic novel tartgeting peptide IT-94) | S. mitis, S. mutans, S. oralis
2 | 1T-95 (GHLLRVGGRVGGVGGVAGACAQPFGGQ; synthetic novel tartgeting peptide IT-95) | S. gordonii, S. mitis, S. mutans,; also recorded: S. oralis, S. sanguinis
3 | 1T-96 (VAGACAQPFGGQ; synthetic novel tartgeting peptide IT-96) | S. gordonii, S. mitis, S. mutans,; also recorded: S. oralis, S. sanguinis
4 | 1T-97 (GVAERNLDRITVAVAIIWTITIVGLGLVAKLG; synthetic novel tartgeting peptide IT-97) | A. naeslundii, F. nucleatum,; also recorded: P. gingivalis; also recorded: S. epidermidis,; also recorded: S. gordonii, S. mitis, S. mutans,; also recorded: S. oralis, S. salivarious,; also recorded: S. sanguinis
5 | 1T-98 (VRSAKAVKALTAAGYTGELVNVSGGMKAWLGQ; synthetic novel tartgeting peptide IT-98) | A. naeslundii, F. nucleatum,; also recorded: P. gingivalis; also recorded: S. epidermidis,; also recorded: S. gordonii, S. mitis, S. mutans,; also recorded: S. oralis, S. salivarious,; also recorded: S. sanguinis
6 | 1T-99 (MKAWLGQ; synthetic novel tartgeting peptide IT-99) | S. gordonii, S. mitis, S. mutans,; also recorded: S. oralis, S. sanguinis
7 | 1T-100 (LDPLEPRIAPPGDRSHQGAPACHRDPLRGRSARDAER; synthetic novel tartgeting peptide IT-100) | S. gordonii, S. mitis, S. mutans
8 | 1T-101 (RLRVGRATDLPLTSFAVGVVRNLPDAPAH; synthetic novel tartgeting peptide IT-101) | A. naeslundii, P. gingivalis; also recorded: S. epidermidis,; also recorded: S. gordonii, S. mitis, S. mutans,; also recorded: S. oralis, S. sanguinis
9 | 1T-102 (WKRLWPARILAGHSRRRMRWMVVWRYFAAT; synthetic novel tartgeting peptide IT-102) | A. naeslundii, F. nucleatum,; also recorded: P. gingivalis; also recorded: S. epidermidis,; also recorded: S. gordonii, S. mitis, S. mutans,; also recorded: S. oralis, S. salivarious,; also recorded: S. sanguinis
10 | 1T-103 (AQFYEAIITGYALGAGQRIGQL; synthetic novel tartgeting peptide IT-103) | A. naeslundii, F. nucleatum,; also recorded: P. gingivalis; also recorded: S. epidermidis,; also recorded: S. gordonii, S. mitis, S. mutans,; also recorded: S. oralis, S. sanguinis
11 | 1T-104 (RAVAAHLQGRHHGHQVRRQRHGQR; synthetic novel tartgeting peptide IT-104) | S. mitis
12 | 1T-105 (GEGLPPPVLHLPPPRMSGR; synthetic novel tartgeting peptide IT-105) | S. epidermidis, S. gordonii,; also recorded: S. mitis, S. mutans,; also recorded: S. oralis
13 | 1T-106 (DALRRSRSQGRRHR; synthetic novel tartgeting peptide IT-106) | S. gordonii, S. mitis, S. mutans,; also recorded: S. oralis, S. salivarious
14 | 1T-107 (SPVPRFTAVGGVSRGSP; synthetic novel tartgeting peptide IT-107) | A. naeslundiiS. epidermidis,; also recorded: S. gordonii,; also recorded: S. mitis, S. mutans, S. oralis,; also recorded: S. salivarious, S. sanguinis
15 | 1T-108 (WGPLGPERPLW; synthetic novel tartgeting peptide IT-108) | S. gordonii, S. mitis, S. mutans,; also recorded: S. oralis, S. salivarious,; also recorded: S. sanguinis
16 | 1T-109 (VTTNVRQGAGS; synthetic novel tartgeting peptide IT-109) | A. naeslundiiS. epidermidis,; also recorded: S. gordonii,; also recorded: S. mitis, S. mutans, S. oralis,; also recorded: S. salivarious, S. sanguinis
17 | 1T-110 (LAAKTAVCVGRAFM; synthetic novel tartgeting peptide IT-110) | A. naeslundii, P. gingivalis; also recorded: S. epidermidis,; also recorded: S. gordonii, S. mitis, S. mutans,; also recorded: S. oralis, S. sanguinis
18 | 1T-111 (GRLSRREEDPATSIILLRGAYRMAVF; synthetic novel tartgeting peptide IT-111) | A. naeslundii, F. nucleatum,; also recorded: P. gingivalis; also recorded: S. epidermidis,; also recorded: S. gordonii, S. mitis, S. mutans,; also recorded: S. oralis, S. salivarious,; also recorded: S. sanguinis
19 | 1T-112 (SDNDGKLILGTSQ; synthetic novel tartgeting peptide IT-112) | S. gordonii
20 | 1T-113 (HGAHQRTGQRLHHHRGRTVSGCRQNPVAGVDPDEHR; synthetic novel tartgeting peptide IT-113) | S. mitis
21 | 1T-114 (RQAPGPGLVTITAACSAPGSRSR; synthetic novel tartgeting peptide IT-114) | A. naeslundii, P. gingivalis; also recorded: S. epidermidis,; also recorded: S. gordonii, S. mitis, S. mutans,; also recorded: S. oralis, S. sanguinis

Row | Substance | Target(s)
22 | 1T-115 (LLIERFSNHH; synthetic novel tartgeting peptide IT-115) | A. naeslundii, F. nucleatum,; also recorded: P. gingivalis; also recorded: S. epidermidis,; also recorded: S. gordonii, S. mitis, S. mutans,; also recorded: S. oralis, S. salivarious,; also recorded: S. sanguinis
23 | 1T-116 (MILHRRRDR; synthetic novel tartgeting peptide IT-116) | A. naeslundii, P. gingivalis; also recorded: S. epidermidis,; also recorded: S. gordonii, S. mitis, S. mutans,; also recorded: S. oralis, S. salivarious,; also recorded: S. sanguinis
24 | 1T-117 (GPGVVGPAPFSRLPAHALNL; synthetic novel tartgeting peptide IT-117) | S. mutans
25 | 1T-118 (TASPPAPSDQGLRTAFPATLLIALAALARISR; synthetic novel tartgeting peptide IT-118) | A. naeslundii, F. nucleatum,; also recorded: P. gingivalis; also recorded: S. epidermidis,; also recorded: S. gordonii, S. mitis, S. mutans,; also recorded: S. oralis, S. salivarious,; also recorded: S. sanguinis
26 | 1T-119 (SPATQKAPTRAQPSRAPVQDCGDGRPTAAPDDVERLSPR; synthetic novel tartgeting peptide IT-119) | S. gordonii, S. mitis, S. mutans,; also recorded: S. oralis
27 | 1T-120 (DVRDRVDLAGADLCAAHATR; synthetic novel tartgeting peptide IT-120) | A. naeslundii, F. nucleatum,; also recorded: P. gingivalis; also recorded: S. epidermidis,; also recorded: S. gordonii, S. mitis, S. mutans,; also recorded: S. oralis, S. salivarious,; also recorded: S. sanguinis
28 | 1T-121 (FAKETGFGIGGAQEGWWIIADIYGPNPF; synthetic novel tartgeting peptide IT-121) | S. gordonii, S. mitis, S. mutans,; also recorded: S. oralis, S. salivarious,; also recorded: S. sanguinis
29 | 1T-122 (GAIPDPVTHRVDWEEDHQTRPSR; synthetic novel tartgeting peptide IT-122) | S. mitis
30 | 1T-123 (LVRRNAVAGRSDGLAGAEQLDLVRLQGVL; synthetic novel tartgeting peptide IT-123) | S. gordonii
31 | 1T-124 (LFDERNKIA; synthetic novel tartgeting peptide IT-124) | S. mitis, S. mutans, S. oralis
32 | 1T-125 (DAITGGNPPLSDTDGLRP; synthetic novel tartgeting peptide IT-125) | S. epidermidis, S. gordonii,; also recorded: S. mutans, S. oralis
33 | 1T-126 (QGLARPVLRRIPL; synthetic novel tartgeting peptide IT-126) | S. gordonii, S. mitis, S. mutans
34 | 1T-127 (YDPVPKRKNKNSEGKREE; synthetic novel tartgeting peptide IT-127) | A. naeslundii, F. nucleatum,; also recorded: P. gingivalis,; also recorded: T. denticolaS. gordonii,; also recorded: S. mitis, S. mutans, S. oralis,; also recorded: S. salivarious, S. sanguinis
35 | 1T-128 (SGSAIRMLEIATKMLKR; synthetic novel tartgeting peptide IT-128) | A. naeslundii, P. gingivalis; also recorded: S. epidermidis,; also recorded: S. gordonii, S. mitis, S. mutans,; also recorded: S. oralis, S. salivarious,; also recorded: S. sanguinis
36 | 1T-129 (YDKYIKYLSIQPPFIVYFI; synthetic novel tartgeting peptide IT-129) | A. naeslundii, P. gingivalis; also recorded: S. epidermidis,; also recorded: S. gordonii, S. mitis, S. mutans,; also recorded: S. oralis, S. salivarious,; also recorded: S. sanguinis
37 | 1T-130 (QKIIDMSKFLFSLILFIMIVVIYIGKSIGGYSAIVSSIMLELDTVLYNKKIFFIYK; synthetic novel tartgeting peptide IT-130) | A. naeslundii, F. nucleatum,; also recorded: P. gingivalis; also recorded: S. epidermidis,; also recorded: S. gordonii, S. mitis, S. mutans,; also recorded: S. oralis, S. salivarious,; also recorded: S. sanguinis
38 | 1T-131 (DEVWKMLGI; synthetic novel tartgeting peptide IT-131) | A. naeslundii, F. nucleatum,; also recorded: P. gingivalis,; also recorded: T. denticolaS. gordonii,; also recorded: S. mitis, S. mutans, S. oralis,; also recorded: S. salivarious, S. sanguinis
39 | 1T-132 (YSKKLFEYFYFIIFILIRYLIFYKIIQNKNYYINNIAYN; synthetic novel tartgeting peptide IT-132) | A. naeslundii, F. nucleatum,; also recorded: P. gingivalis; also recorded: S. epidermidis,; also recorded: S. gordonii, S. mitis, S. mutans,; also recorded: S. oralis, S. salivarious,; also recorded: S. sanguinis
40 | 1T-133 (YFIKDDNEALSKDWEVIGNDLKGTIDKYGKEFKVR; synthetic novel tartgeting peptide IT-133) | A. naeslundii, P. gingivalis; also recorded: S. epidermidis,; also recorded: S. gordonii, S. mitis, S. mutans,; also recorded: S. oralis, S. salivarious,; also recorded: S. sanguinis
41 | 1T-134 (SRLVREIKKKCRKS; synthetic novel tartgeting peptide IT-134) | A. naeslundii, F. nucleatum,; also recorded: P. gingivalis; also recorded: S. epidermidis,; also recorded: S. gordonii, S. mitis, S. mutans,; also recorded: S. oralis, S. salivarious,; also recorded: S. sanguinis
